Test systems include HS 578T breast; SK-MEL-28 melanoma; HCT-116 colon; UACC-62 melanoma; MDA-MB-231 breast; HL-60(TB) leukemia; SNB-19 CNS; CCRF-CEM leukemia; BT-549 breast; UACC-257 melanoma.
Holding throughout (assay): DTP human tumour cell line panel, 48 h

Several values for one entry are separate records, joined by “and”; a condition that tells them apart may be missing. Identical values can stand only once.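 Tested at 5 concentrations; 48 h exposure; 96-well plates; endpoints linearly interpolated, else capped at highest concentration. Abbreviation: GI50, concentration required for 50% inhibition of growth. The concentration for full growth arrest is given as TGI.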 Bounds are passed on as bounds.

Take `CCN(Cc1ccc(F)cc1)c1ccc(CO)c(Br)c1`: the GI50 (as a rule, the concentration that inhibits growth by half) is 13.5 µM in the test with HS 578T breast; 15 µM with SK-MEL-28 melanoma; 0.046 µM in the test on HCT-116 colon; 0.0522 µM in the test with UACC-62 melanoma; 14.2 µM in the test with MDA-MB-231 breast; 3.26 µM with HL-60(TB) leukemia. The GI50 in the test on SNB-19 CNS is 15.7 µM; in the test on CCRF-CEM leukemia, 14.6 µM; in the test with BT-549 breast, 12.2 µM; with UACC-257 melanoma, 0.0406 µM. The TGI (usually the concentration at which net growth stops) with HS 578T breast turned out to be 46.1 µM; in the test on SK-MEL-28 melanoma, 50.6 µM; with HCT-116 colon, 12.6 µM; in the test with UACC-62 melanoma it was 0.342 µM; in the test on MDA-MB-231 breast it was 36.5 µM; in the test with HL-60(TB) leukemia it was 26.4 µM. The TGI in the test with SNB-19 CNS is 44.2 µM; in the test with CCRF-CEM leukemia, 43.9 µM; in the test with BT-549 breast it was 29 µM; with UACC-257 melanoma it was 0.185 µM.

Take `CC(C)=CCc1cc2c(cc1O)OC[C@H]1c3cc4c(cc3O[C@@H]21)OCO4`: the total growth inhibition concentration (TGI) is 75.5 µM with HS 578T breast; above 100 µM in the test on SK-MEL-28 melanoma; 32.2 µM with HCT-116 colon; above 100 µM in the test on UACC-62 melanoma; above 100 µM with MDA-MB-231 breast; 71.9 µM with HL-60(TB) leukemia. In addition, the TGI in the test with SNB-19 CNS was above 100 µM; in the test with CCRF-CEM leukemia, 80.8 µM; in the test on BT-549 breast, 95.3 µM; with UACC-257 melanoma it was above 100 µM.

Take `CC(C(=O)O)c1cccc(Oc2ccccc2)c1` (stereo not given): the GI50 in the test with HS 578T breast, with SK-MEL-28 melanoma, with HCT-116 colon, with UACC-62 melanoma, in the test on MDA-MB-231 breast and in the test on HL-60(TB) leukemia was above 100 µM throughout. The GI50 with SNB-19 CNS, in the test on CCRF-CEM leukemia, with BT-549 breast and with UACC-257 melanoma was above 100 µM each time. In addition, the TGI in the test on HS 578T breast, in the test with SK-MEL-28 melanoma, in the test on HCT-116 colon, with UACC-62 melanoma, in the test with MDA-MB-231 breast and in the test with HL-60(TB) leukemia was above 100 µM throughout. The TGI in the test on SNB-19 CNS, with CCRF-CEM leukemia, in the test on BT-549 breast and with UACC-257 melanoma was above 100 µM throughout.

For the compound `O=C(Nc1cc(C(F)(F)F)ccc1Cl)c1cccc(NC2=C(Cl)C(=O)N(Cc3ccccc3)C2=O)c1`, the GI50 in the test with HS 578T breast was 53.7 µM; in the test with SK-MEL-28 melanoma it was above 100 µM; with HCT-116 colon, 10.3 µM; in the test with UACC-62 melanoma it was 26.5 µM; in the test with MDA-MB-231 breast, 32.7 µM; in the test with HL-60(TB) leukemia, 3.52 µM. In addition, the GI50 in the test on SNB-19 CNS was above 100 µM; in the test on CCRF-CEM leukemia, 2.71 µM; with BT-549 breast, 15.6 µM; in the test on UACC-257 melanoma, 53.7 µM. Also, the TGI is above 100 µM with HS 578T breast; above 100 µM in the test on SK-MEL-28 melanoma; above 100 µM in the test on HCT-116 colon; above 100 µM in the test on UACC-62 melanoma; above 100 µM with MDA-MB-231 breast; 9.23 µM in the test with HL-60(TB) leukemia. The TGI with SNB-19 CNS, in the test on CCRF-CEM leukemia, in the test on BT-549 breast and with UACC-257 melanoma was above 100 µM in each case.

Take `CSc1nc(NC2OC(COC(C)=O)C(OC(C)=O)C(OC(C)=O)C2OC(C)=O)c(N=CC=Nc2c(NC3OC(COC(C)=O)C(OC(C)=O)C(OC(C)=O)C3OC(C)=O)nc(SC)n(C)c2=O)c(=O)n1C` (stereo not given): the GI50 with HS 578T breast is 13.2 µM; in the test with SK-MEL-28 melanoma it was above 50 µM; in the test with HCT-116 colon it was above 50 µM; with UACC-62 melanoma, above 50 µM; with MDA-MB-231 breast it was 25.2 µM; in the test on HL-60(TB) leukemia it was above 50 µM. The GI50 in the test on SNB-19 CNS was 21.1 µM; with CCRF-CEM leukemia, above 50 µM; in the test with BT-549 breast, 37.5 µM; with UACC-257 melanoma it was above 50 µM. Besides, the TGI in the test on HS 578T breast was 50 µM and 75.7 µM; in the test on SK-MEL-28 melanoma, above 100 µM; in the test on HCT-116 colon it was above 100 µM; with UACC-62 melanoma, above 100 µM; with MDA-MB-231 breast, 50 µM and > 100 µM; with HL-60(TB) leukemia it was above 100 µM. In addition, the TGI is 50 µM and 92.1 µM in the test with SNB-19 CNS; above 100 µM in the test with CCRF-CEM leukemia; 50 µM and > 100 µM in the test on BT-549 breast; above 100 µM with UACC-257 melanoma.
